From US20260216229A1, “PROGRAMMABLE DNA PROTEOLYSIS TARGET CHIMERAS AND METHODS OF THEIR USE” (ARIZONA BOARD OF REGENTS ON BEHALF OF ARIZONA STATE …, priority 2023, published 2026)

Key:
Type in all cases: cell-based
CDK6 [1] = molecular target: T1, CDK6 (Homo sapiens, UniProt Q00534); assay: Western blot of CDK6 degradation in U251 cells transfected with DNA-PROTACs
T1 construct: Western blot analysis of CDK6 degradation in U251 cells treated with distance-based DNA-PROTACs; endogenous in cells; host or cells: U-251 MG (U251) glioblastoma cells
T1 sequence (Q00534 whole entry): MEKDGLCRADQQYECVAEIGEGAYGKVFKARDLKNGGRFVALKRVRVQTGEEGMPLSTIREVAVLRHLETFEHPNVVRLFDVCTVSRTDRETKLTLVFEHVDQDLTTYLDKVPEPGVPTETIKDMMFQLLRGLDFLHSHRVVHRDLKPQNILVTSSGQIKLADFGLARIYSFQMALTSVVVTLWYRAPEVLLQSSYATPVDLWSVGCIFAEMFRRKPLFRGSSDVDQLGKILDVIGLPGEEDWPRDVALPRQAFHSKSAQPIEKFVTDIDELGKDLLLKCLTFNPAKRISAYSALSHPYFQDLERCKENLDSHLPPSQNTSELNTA
Procedure: U-251 MG Glioblastoma Cell Line was grown in Dulbecco's Modified Eagles Medium (DMEM) containing 10% heat inactivated fetal bovine serum (FBS), streptomycin (5 μg/mL) and 5 U/mL penicillin 95 U/mL). All cell lines were maintained, and cell culture experiments were carried out in humidified incubators at 37° C. and 5% CO2 supplementation.
One day prior to DNA-PROTACs transfection, cells were propagated into 6 cm cell culture dishes containing appropriate complete growth medium. Prior to transfection, complete medium was replaced with transfection medium (5% FBS, no Penstrep). DNA-PROTACs transfection was performed using lipofectamine 3000 reagent according to the protocols provided by the manufacture. All transfections were carried out in 6-cm dishes with 3 mL of media and concentrations of DNA-PROTACs were calculated according to this volume (3 mL). Briefly, for 50 nM concentration, 5 μL from a 30 µM DNA-PROTACs stock and 12 μL p3000 reagent was added to a tube containing 125 μL of OPTIM-MEM and 8 μL of Lipofectamine 3000 reagent was added to a separate tube containing 125 μL of OPTIM-MEM. Two tubes were incubated for 5 minutes at room temperature and DNA-PROTACs containing OPTI-MEM was then slowly added to the second tube with lipo3000. The solution in the tube was mixed well by pipetting up and down several times. After incubating for 15-20 minutes at room temperature, 250 μL of DNA-PROTACs-lipofectamine complex was added drop wise onto cells containing the transfection medium. Transfection medium was mixed well before transferring the plate into the incubator. After appropriate time, cells were either harvested or replaced with fresh medium and incubated for desired time point prior to harvesting. For proteasome inhibition assay, 5 μM of MG-132 was incubated with cells for 2 h prior to transfection of DNA-PROTACs. Then, cells were incubated for another 12 h before lysing cells. Cell lysates were prepared by incubating cells in RIPA lysis buffer (25 mM Tris pH 7.6, 150 mM NaCl, 1% NP40, 1% deoxycholate, 0.1% SDS, 1× protease inhibitor cocktail from Roche and 1 mM of PMSF) on ice for 30 minutes and cell lysate was clarified by centrifugation at high speed (15 000 rpm) for 15 minutes. Clear supernatant was collected for further experiments.
Protein concentration in all the cell lysates were measured by BCA protein assay kit and equal amounts from each lysate were mixed with 4×loading dye and boiled for 5 minutes followed by 2 minutes centrifugation prior to loading into SDS-PAGE gel. Next proteins on the SDS-PAGE gel were transferred to a Nitrocellulose membrane by western blotting and the membrane was blocked with 5% milk in TBST (0.05% Tween 20) for 1 h. Primary antibodies (all Abcam antibodies were diluted 1:5000) were prepared in TBST with 2.5% milk and membranes were incubated overnight at 4° C. On the following day, membrane was washes for 15 minutes (Incubate for three times, 5 minutes each) and appropriate secondary antibodies (1:5000) were prepared in TBST and incubated with the membrane for 1 h at room temperature (RT). Membrane was washed for 15 minutes with TBST (incubate for three times, […]) prior to imaging.
The degradation efficiency of various DNA-PROTACs was evaluated through their transfection into U251 cells, conducted simultaneously to ensure uniform experimental conditions. A double-stranded DNA sequence without any ligand was utilized as a negative control, providing a baseline for comparison. Following a 14-hour treatment period, a duration selected based on preliminary time-course studies, the cells were harvested using trypsin digestion. The lysates obtained were then subjected to SDS-PAGE, followed by Western blot analysis to assess protein degradation. […] This finding highlights the efficacy of DNA-PROTAC V02 in targeting and reducing CDK6 protein levels. In comparison, DNA-PROTAC Versions 03 and 04 also facilitated protein degradation, albeit with varying degrees of efficiency. […]

CDK4 = molecular target: T2, CDK4 (Homo sapiens, UniProt P11802); assay: Western blot of CDK4 degradation in U251 cells transfected with DNA-PROTACs
T2 construct: Dose- and Time-dependent Degradation of CDK6 and CDK4 in U251 Cells; endogenous in cells; host or cells: U-251 MG (U251) glioblastoma cells
T2 sequence (P11802 whole entry): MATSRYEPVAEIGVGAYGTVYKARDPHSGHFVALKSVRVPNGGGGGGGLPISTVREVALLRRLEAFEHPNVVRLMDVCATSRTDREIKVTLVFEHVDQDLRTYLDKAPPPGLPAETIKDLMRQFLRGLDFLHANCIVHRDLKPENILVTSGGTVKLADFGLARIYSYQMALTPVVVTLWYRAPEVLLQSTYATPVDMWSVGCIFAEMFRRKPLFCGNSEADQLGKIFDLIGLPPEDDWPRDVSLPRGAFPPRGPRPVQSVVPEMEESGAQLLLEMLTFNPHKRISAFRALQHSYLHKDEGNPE
Procedure: One day prior to DNA-PROTACs transfection, cells were propagated into 6 cm cell culture dishes containing appropriate complete growth medium. Prior to transfection, complete medium was replaced with transfection medium (5% FBS, no Penstrep). DNA-PROTACs transfection was performed using lipofectamine 3000 reagent according to the protocols provided by the manufacture. All transfections were carried out in 6-cm dishes with 3 mL of media and concentrations of DNA-PROTACs were calculated according to this volume (3 mL). Briefly, for 50 nM concentration, 5 μL from a 30 µM DNA-PROTACs stock and 12 μL p3000 reagent was added to a tube containing 125 μL of OPTIM-MEM and 8 μL of Lipofectamine 3000 reagent was added to a separate tube containing 125 μL of OPTIM-MEM. […]

CDK6 mRNA = assay: RT-PCR of CDK6 mRNA expression in U251 cells; settings: 100 nM, 6 hours
Procedure: (§1) Subsequent RNA isolation and RT-PCR detection enabled a quantitative assessment of CDK6 and CDK4 mRNA expression levels. […] To further corroborate the mechanistic intricacies of DNA-PROTAC-V02, we probed its interaction with the proteasome pathway. […] Following an 8-hour treatment period, cells were collected, and Western blot analysis was conducted.

CDK4 mRNA = assay: RT-PCR of CDK4 mRNA expression in U251 cells; settings: 100 nM, 6 hours
Procedure: as §1

CDK6 [2] = molecular target: T1, CDK6; assay: Proteasome inhibition (MG132) assay of CDK6 degradation in U251 cells; settings: 8-hour treatment
Procedure: One day prior to DNA-PROTACs transfection, cells were propagated into 6 cm cell culture dishes containing appropriate complete growth medium. Prior to transfection, complete medium was replaced with transfection medium (5% FBS, no Penstrep). DNA-PROTACs transfection was performed using lipofectamine 3000 reagent according to the protocols provided by the manufacture. All transfections were carried out in 6-cm dishes with 3 mL of media and concentrations of DNA-PROTACs were calculated according to this volume (3 mL). Briefly, for 50 nM concentration, 5 μL from a 30 µM DNA-PROTACs stock and 12 μL p3000 reagent was added to a tube containing 125 μL of OPTIM-MEM and 8 μL of Lipofectamine 3000 reagent was added to a separate tube containing 125 μL of OPTIM-MEM. Two tubes were incubated for 5 minutes at room temperature and DNA-PROTACs containing OPTI-MEM was then slowly added to the second tube with lipo3000. The solution in the tube was mixed well by pipetting up and down several times. […]
Protein concentration in all the cell lysates were measured by BCA protein assay kit and equal amounts from each lysate were mixed with 4×loading dye and boiled for 5 minutes followed by 2 minutes centrifugation prior to loading into SDS-PAGE gel. […]
Subsequent RNA isolation and RT-PCR detection enabled a quantitative assessment of CDK6 and CDK4 mRNA expression levels. […]

CDK6 [3] = molecular target: T1, CDK6; assay: Immunofluorescence staining / confocal analysis of CDK6 in U251 cells; settings: 20 nM and 100 nM, compared to controls dsDNA, dsDNA-CDK6-i, dsDNA-E3-i
Procedure: U-251 MG cells were seeded into 10 mm confocal dishes (Ibidi) and incubated overnight. Subsequently, cells were quickly washed thrice with ice-cold PBS and then fixed with 4% paraformaldehyde for 20 min. After fixation, cells were washed with PBS and permeabilized with 0.1% Triton X-100 at room temperature for 10 min. The samples were then incubated in a blocking solution for 1 h at room temperature, followed by incubation with primary antibody overnight at 4° C. The primary antibody used was mouse CDK6 antibody (Abacm, 1:100). After washing thrice with PBST (PBS with 0.1% Tween 20), the samples were incubated with the secondary antibody in the dark for 1.5 h at room temperature. Cells were washed 3 times in PBST for 5 minutes each then incubated in the appropriate secondary antibodies supplemented CoraLite488-conjugated Goat Anti-Rabbit IgG(H+L) (Proteintech, 1:100) for 3 hrs. The nucleus was counterstained with DAPI (Hoechst 3342, 1 ug/mL) for 20 mins followed by 3 times wash in PBST. Finally, the slides were Imaging by Nikon X confocal.

Substance	CDK6 protein degradation (target selectivity, controls) (CDK6 [1])	CDK4 protein degradation (target selectivity, controls) (CDK4)	CDK6 degradation (CDK6 [1]; 50 nM)	time for which CDK6 degradation was sustained (CDK6 [1]; 50 nM, time course)	CDK6 protein degradation (Western blot) (CDK6 [1]; 14-hour treatment, 50 nM and 100 nM, vs ligand-free dsDNA control)	concentration at which significant CDK6 degradation begins (CDK6 [1]; 14 hours, angular series)	concentration at which dose-dependent degradation of CDK6 commences (CDK6 [1]; dose series)	CDK6 mRNA levels (RT-PCR) (CDK6 mRNA)	CDK4 mRNA levels (RT-PCR) (CDK4 mRNA)	CDK6 protein (Western blot) without MG132 treatment (CDK6 [2]; 50 nM, no MG132)	CDK6 protein (Western blot) with MG132 pre-treatment (CDK6 [2]; MG132 pre-treatment 1 hour, then 50 nM)	intracellular green fluorescence (CDK6 immunofluorescence) (CDK6 [3])
DNA-E3 ligand: control: dsDNA with E3 ligand only (chain 1 CTCCATCTATTCTACGCCA; chain 2 TTCTACGCCA; chain 1: DNA, linkages s2 o13 s3 (s phosphorothioate, o phosphodiester), methylation of C not given here; chain 2: DNA, linkages o6 s3 (s phosphorothioate, o phosphodiester), methylation of C not given here; further chemistry not fully specified) [reference compound]	did not induce notable protein degradation	did not induce notable protein degradation	–	–	–	–	–	–	–	–	–	–
DNA-PROTAC-V02: DNA duplex of E3-i (pomalidomide) strand SEQ ID NO 3 and POI-i (palbociclib) strand SEQ ID NO 4 (chain 1 ACTCCATCTANTTCTACGCCA; chain 2 TGGCGTAGAANTAGATGGAGT; pomalidomide and palbociclib conjugated; modified_base 1 OTHER; Nucleotide with phosphorothioate linkage; modified_base 2 OTHER; modified_base 3 OTHER; misc_difference 11 E3 ligase attached to 3-Dimethoxytrityloxy-2-(3-(fluorenylmethoxycarbonylamino)propanamido)propyl-1-O-(2-cyanoethyl)-(N,N-diisopropyl)-phosphoramidite modified adenosine, cytidine, thymi; m)	–	–	over 80%	up to 48 hours	most pronounced degradation of CDK6	20 nM	10 nM	does not elicit a decrease in mRNA levels	does not elicit a decrease in mRNA levels	reduction in CDK6 protein	rescue of CDK6 proteins	weakened intracellular green fluorescence
